pKd: −log10 of the molar value. Peptide text beside a SMILES is read from it.
Key:
SCC12B.2 cells = format: cell-based, human; settings: 5-FU alone, concentration printed as 2004, FIG. 1D
Procedure: Human skin cancer cell lines (SCC12B.2, SCC13, SRB12) were maintained in Dulbecco's modified Eagle's medium (DMEM) (Invitrogen, Carlsbad, Calif., USA) supplemented with 1% penicillin (10 000 U/ml)-streptomycin (10 000 μg/ml) (PenStrep) (Invitrogen) and 10% fetal bovine serum (Gemini Bio-Products, Sacramento, Calif., USA) at 37° C. and 5% CO2. Normal human epidermal keratinocytes (nHEK) (Thermo Scientific, Waltham, Mass., USA) isolated from neonatal foreskin were cultured in EpiLife medium (Invitrogen) supplemented with human keratinocyte growth supplement (Invitrogen) and 1% PenStrep (Invitrogen). Cells were transfected with control pcDNA or pcDNA3.1-HA-14-3-3ε (Addgene plasmid #48797; http://n2t.net/addgene:48797; RRID:Addgene_48797) using Lipofectamine/Plus reagents (Life Technologies, Carlsbad, Calif., USA) or with siRNA targeting 14-3-3ε (Dharmacon, Lafayette, Colo., USA), 14-3-3γ (Dharmacon), 14-3-3ζ, (Dharmacon), Survivin (Cell Signaling, Danvers, Mass., USA), Akt (Dharmacon) or control siRNA (Santa Cruz Biotechnology, Dallas, Tex., USA) using siQuest transfection reagents (Mirus Bio, Madison, Wis., USA) or treated with Akt inhibitor GSK690693 (Tocris Bioscience, Bristol, United Kingdom) or cell cycle inhibitor 5-Fluorouracil (5-FU) (Thermo Fisher) resuspended in DMSO.
To determine the half maximal inhibitory concentration (IC50) for ES1P2 in SCC12B.2 and nHEK cells, cells were plated in a 96-well plate at a density of 6×10^3 cells/well. Twenty-four hours after plating, cells were treated with increasing concentrations of ES1P2 (0-75 μM) in Opti MEM medium supplemented with reduced serum (Invitrogen) for 4 consecutive days. ES1P2 peptide was resuspended fresh, daily in 25 mM Tris buffer (pH 7.5). Neutral Red Cell Viability assays were performed, where absorbance was measured using a Cytation 5 multi-mode plate reader (BioTek). The experiment was repeated three separate times with 4 replicate wells per experiment to obtain an average IC50 value.
Carcinoma human cell lines (SCC12B.2 and SCC13) were maintained in Dulbecco's modified Eagle's medium (DMEM) (Invitrogen, Carlsbad, Calif., USA) supplemented with 1% penicillin (10 000 U/ml)-streptomycin (10 000 μg/ml) (PenStrep) (Invitrogen) and 10% fetal bovine serum (Gemini Bio-Products, Sacramento, Calif., USA) at 37° C. and 5% CO2. Primary normal human epidermal keratinocytes (nHEK) (Thermo Fisher Scientific, Waltham, Mass., USA) isolated from neonatal foreskin were maintained in EpiLife medium (Invitrogen) supplemented with human keratinocyte growth supplement (HKGS) and 1% PenStrep. nHEK cells were not passaged more than twice before experiments. Cells were treated with CDC25A inhibitor NSC663284 (Tocris Bioscience, Bristol, United Kingdom) suspended in DMSO, transfected with wild type CDC25A or control plasmid using Lipofectamine/Plus transfection reagents (Life Technologies, Carlsbad, Calif., USA) or transfected with siRNA targeting 14-3-3 ε or control siRNA (Santa Cruz Biotechnology, Dallas, Tex., USA) using siQuest transfection reagents (Mirus Bio, Madison, Wis., USA).
To determine the half maximal inhibitory concentration (IC50) for pS and pT in SCC12B.2 cells, cells were plated in a 96-well plate at a density of 6×10^3 cells/well. […] Neutral Red Cell Viability assays were performed, where absorbance was measured using a Cytation 5 multi-mode plate reader (BioTek). […]

14-3-3ε protein = target: T1, 14-3-3ε protein (Homo sapiens, UniProt P62258); assay: Differential scanning fluorimetry (DSF) binding; settings: 7 μM 14-3-3ε, ΔTm vs peptide concentration, Hill fit; read-out: Kd, binding affinity to 14-3-3ε protein (DSF)
T1 sequence (P62258 1-255): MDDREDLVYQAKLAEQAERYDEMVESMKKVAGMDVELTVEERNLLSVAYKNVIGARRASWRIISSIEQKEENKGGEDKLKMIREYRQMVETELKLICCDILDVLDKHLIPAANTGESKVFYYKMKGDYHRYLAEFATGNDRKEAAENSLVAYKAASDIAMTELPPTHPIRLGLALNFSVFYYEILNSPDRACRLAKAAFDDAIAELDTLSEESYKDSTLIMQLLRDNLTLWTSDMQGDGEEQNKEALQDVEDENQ
Procedure: Differential scanning fluorimetry (DSF) experiments were performed using BioRad CFX384 Real-Time qPCR attached with C1000 Touch Thermo Cycler in the FRET channel. 7 μM subunits of 14-3-3ε protein, ten molar excess of Sypro Orange and 20 mM Tris-HCl, pH 7.4 assay buffer were used in all the melting experiments. Stock solution of peptides were prepared by dissolving 1 mg of lyophilized peptides in 20 mM Tris, pH 7.4 buffer and 0.1 μM to 200 μM dilution series were prepared. Protein melting experiments were performed both in the absence and the presence of increasing concentration of peptides. 15 μL of each samples (in triplicate) were put into each well of a 384-well white PCR plate and sealed with optical adhesive sealer (BioRad MSB-1001) and any air-bubble in the solutions were removed by spinning the plate vertically with PCR plate spinner (Labnet MPS 1000) at 1000 RPM for 3 minutes. The temperature was increased from 25° C. to 95° C. at a rate of 0.7° C. per minute. Melting temperatures of each well were determined using the CFX Maestro software version 2.0 by plotting the first derivative of fluorescence signal against temperature. All the measurements were performed in triplicate and the deviations of melting temperatures (ΔTm) presented for each samples were calculated relatively to three control samples (7 μM 14-3-3ε in the absence of the peptide). Binding constant (Kd) for each peptide was calculated by plotting ΔTm against peptide concentration and data points were fitted with Hill's equation using GraphPad 9.0 software.

pKd (14-3-3ε protein)	SMILES	SCC cells alive (SCC12B.2 cells) [% alive]
	O=c1[nH]cc(F)c(=O)[nH]1 [5-FU, 5-Fluorouracil, reference compound]	71.5
5.63	CC(=O)N[C@@H](CCCNC(=N)N)C(=O)N[C@H](C(=O)N[C@@H](CCCCN)C(=O)N[C@@H](CO)C(=O)N[C@@H](CCCNC(=N)N)C(=O)N[C@H](C(=O)N[C@@H](Cc1ccc(O)cc1)C(=O)N[C@@H](C)C(=O)NCC(N)=O)[C@@H](C)OP(=O)(O)O)[C@@H](C)O [Ac-Arg-Thr-Lys-Ser-Arg-Thr(PO3^2−)-Tyr-Ala-Gly-NH2] (HELM PEPTIDE1{[ac].R.T.K.S.R.[C[C@@H](OP(=O)(O)O)[C@H](N[*:1])C(=O)[*:2]].Y.A.G.[am]}$$$$V2.0)	
5.08	CC(=O)N[C@@H](CCC(N)=O)C(=O)N[C@@H](CCCNC(=N)N)C(=O)N[C@@H](Cc1ccccc1)C(=O)N[C@@H](CC(N)=O)C(=O)N[C@@H](COP(=O)(O)O)C(=O)N[C@@H](C)C(=O)N1CCC[C@H]1C(=O)N[C@@H](C)C(=O)N[C@@H](CCCNC(=N)N)C(N)=O [Ac-Gln-Arg-Phe-Asn-Ser-(PO3^2−)-Ala-Pro-Ala-Arg-NH2] (HELM PEPTIDE1{[ac].Q.R.F.N.[O=C([C@H](COP(=O)(O)O)N[*:1])[*:2]].A.P.A.R.[am]}$$$$V2.0)	
5.03	CC(=O)N[C@@H](CCC(N)=O)C(=O)N[C@@H](CCCNC(=N)N)C(=O)N[C@@H](Cc1ccc(O)cc1)C(=O)N[C@@H](CC(N)=O)C(=O)N[C@@H](COP(=O)(O)O)C(=O)N[C@@H](C)C(=O)N1CCC[C@H]1C(=O)N[C@@H](C)C(=O)N[C@@H](CCCNC(=N)N)C(N)=O [Ac-Gln-Arg-Tyr-Asn-Ser-(PO3^2−)-Ala-Pro-Ala-Arg-NH2] (HELM PEPTIDE1{[ac].Q.R.Y.N.[O=C([C@H](COP(=O)(O)O)N[*:1])[*:2]].A.P.A.R.[am]}$$$$V2.0)	

Source: patent US11685766B2, “14-3-3 targeting peptides for cancer treatment” (Creighton University, priority 2019, dated 2023)
